Measured values as given in US9269550B2, “Mass spectrometric methods for quantifying NPY 1-36 and NPY 3-36” (Georgetown University, priority 2010, dated 2016).

Legend:
SK-N-MC cells = assay: Cell viability in SK-N-MC cells; format: cell-based, human
Y1Rs = target: T1, Y1Rs (Homo sapiens, UniProt P25929); settings: cited from earlier work
T1 sequence (P25929 1-384): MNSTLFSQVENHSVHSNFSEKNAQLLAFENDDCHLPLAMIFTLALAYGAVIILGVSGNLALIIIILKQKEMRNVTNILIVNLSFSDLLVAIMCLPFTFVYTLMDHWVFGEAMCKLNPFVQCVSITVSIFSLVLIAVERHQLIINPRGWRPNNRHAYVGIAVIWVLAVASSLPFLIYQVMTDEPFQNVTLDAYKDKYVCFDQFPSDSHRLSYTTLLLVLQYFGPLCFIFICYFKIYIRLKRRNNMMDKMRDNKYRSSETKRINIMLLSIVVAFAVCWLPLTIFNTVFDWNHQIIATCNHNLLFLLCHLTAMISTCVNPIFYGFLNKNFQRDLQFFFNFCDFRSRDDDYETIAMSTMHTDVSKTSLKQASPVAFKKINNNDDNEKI

Substance	decrease in cell viability (SK-N-MC cells)	activity at Y1Rs (Y1Rs)
NPY 1-36: 36-amino acid peptide neurotransmitter found in the brain and autonomic nervous system	decrease in cell viability was achieved	–
NPY 3-36: 34-amino acid peptide fragment formed by dipeptidyl peptidase IV (DPPIV) cleavage of NPY 1-36	not	inactive
